Assay results reported in patent publication US11787839B2, “Targeting α2δ-1-bound glutamate receptors for treating diseases and disorders” (Board of Regents, The University of Texas System, priority 2017, dated 2023).

Columns and labels:
Format in all cases: cell-based
[1] = test system: NMDARs of spinally projecting PVN neurons; assay: Recordings of spinally projecting PVN neurons in WT and Cacna2d1 KO mouse slices (Ang II); conditions: Ang II 2 μmol/L
From the text: Animals: 10- to 12-week-old male Sprague Dawley rats were used (Harlan Sprague Dawley, Indianapolis, Ind.) and both male and female mice (C57BL/6 genetic background) in the experiments. Two breeding pairs of Cacna2d1+/− mice were purchased from Medical Research Council (Harwell Didcot, Oxfordshire, UK), and Cacna2d1−/− (knockout) mice and Cacna2d1+/+ (wild-type) littermates were obtained by breeding the heterozygous mice. Because no sex differences were found in the effect of Ang II on synaptic NMDAR activity, electrophysiological data from male and female mice were pooled. All surgical preparation and experimental protocols were approved by the Animal Care and Use Committee of The University of Texas MD Anderson Cancer Center and conformed to the National Institutes of Health guidelines for the ethical use of animals. All efforts were made to minimize both the suffering and number of animals used.
Retrograde labeling of spinally projecting PVN neurons: Rats or mice were anesthetized with 2-3% isoflurane, and their spinal cords at the T1-T4 level were exposed through dorsal laminectomy. A fluorescent microsphere suspension (FluoSpheres, 0.04 μm; Molecular Probes, Invitrogen, Eugene, Oreg.) was pressure ejected (Nanoject II Microinjectors, Drummond Scientific Company, Broomall, Pa.) bilaterally into the IML region of the spinal cord in six separate 50-nl injections using a glass micropipette (tip diameter, 20-30 μm). The tracer injection was monitored through a surgical microscope (Li et al., 2002, 2003). The wound was closed with sutures after injection. Animals were returned to their cages for 4-7 days, which was sufficient time to permit the tracer to be retrogradely transported to the PVN. The animals were inspected daily for motor activity, signs of infection, and food and water intake.
Brain slice preparation: Four to seven days after fluorescent tracer injection, the animals were anesthetized with isoflurane and rapidly decapitated. The brain was quickly removed and placed in ice-cold artificial CSF (aCSF) saturated with 95% O2 and 5% CO2. A tissue block containing the hypothalamus was cut from the brain and glued onto the stage of a vibratome (Leica VT1000 S, Leica Biosystems Inc. Buffalo Grove, Ill.) as described previously (Li et al., 2003; Ye et al., 2011). […]
Electrophysiological recordings: The fluorescence-labeled neurons located in the medial one-third of the PVN area between the third ventricle and the fornix were selected for recording (Li et al., 2002, 2003). […]
The miniature excitatory postsynaptic currents (mEPSCs) were recorded in the presence of 1 μmol/L tetrodotoxin (TTX) and 20 μmol/L bicuculline at a holding potential of −60 mV (Li et al., 2003; Ye et al., 2011). […]

[2] = target: T1, NMDARs of hippocampal CA1 pyramidal neurons (Mus musculus, UniProt O08532+P35438); assay: Puff NMDAR currents of hippocampal CA1 neurons, oxygen-glucose deprivation (OGD); conditions: gabapentin 30 or 100 μM, 60 min
T1 construct: from tissue; host or cells: mouse brain slices (hippocampal CA1, hypothalamic PVN, brain tissue membrane extracts)
T1 sequence (O08532 25-956 limits assumed, other chains not shown): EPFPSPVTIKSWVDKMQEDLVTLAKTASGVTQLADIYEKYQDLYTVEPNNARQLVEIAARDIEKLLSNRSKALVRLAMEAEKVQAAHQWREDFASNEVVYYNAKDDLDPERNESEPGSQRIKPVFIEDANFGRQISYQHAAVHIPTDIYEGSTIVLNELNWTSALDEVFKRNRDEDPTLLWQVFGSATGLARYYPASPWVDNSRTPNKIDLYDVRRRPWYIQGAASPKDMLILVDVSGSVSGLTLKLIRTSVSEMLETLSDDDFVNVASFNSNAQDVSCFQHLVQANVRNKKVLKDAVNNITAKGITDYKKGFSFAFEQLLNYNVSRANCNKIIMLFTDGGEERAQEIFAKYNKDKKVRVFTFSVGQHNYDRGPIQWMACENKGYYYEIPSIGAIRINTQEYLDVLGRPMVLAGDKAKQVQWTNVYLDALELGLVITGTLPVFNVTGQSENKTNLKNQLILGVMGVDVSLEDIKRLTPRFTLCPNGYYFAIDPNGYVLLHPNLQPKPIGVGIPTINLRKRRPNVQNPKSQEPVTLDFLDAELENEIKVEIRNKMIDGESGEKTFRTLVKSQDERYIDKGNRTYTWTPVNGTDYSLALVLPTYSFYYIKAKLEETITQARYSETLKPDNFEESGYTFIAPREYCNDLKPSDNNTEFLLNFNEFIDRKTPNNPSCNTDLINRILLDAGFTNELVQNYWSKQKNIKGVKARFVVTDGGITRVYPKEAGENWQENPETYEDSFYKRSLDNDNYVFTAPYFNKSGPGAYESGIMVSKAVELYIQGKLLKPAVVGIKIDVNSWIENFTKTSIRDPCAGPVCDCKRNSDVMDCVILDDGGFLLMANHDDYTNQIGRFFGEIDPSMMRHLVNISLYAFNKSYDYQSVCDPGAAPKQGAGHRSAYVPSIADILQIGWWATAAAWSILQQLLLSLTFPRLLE
Protocol: Brain slice preparation and recording. The tissues containing the hippocampus were sliced sagittally (300 μm thick) using a vibratome. […] NMDAR currents of pyramidal neurons in the hippocampal CA1 region were recorded by puff application of 100 μM NMDA directly to the recorded neuron at a holding potential of −60 mV.

[3] = target: T2, presynaptic NMDARs of spinal dorsal horn neurons (Rattus norvegicus, UniProt P35439+Q00959+Q00960); assay: Spinal cord slice recordings, morphine-treated rats; conditions: AP5 50 μM, gabapentin 100 μM
T2 construct: from tissue; host or cells: rat lumbar spinal cord slices (lamina II neurons) and synaptosomes made from them
T2 sequence (Q00959 20-1464 limits assumed, other chains not shown): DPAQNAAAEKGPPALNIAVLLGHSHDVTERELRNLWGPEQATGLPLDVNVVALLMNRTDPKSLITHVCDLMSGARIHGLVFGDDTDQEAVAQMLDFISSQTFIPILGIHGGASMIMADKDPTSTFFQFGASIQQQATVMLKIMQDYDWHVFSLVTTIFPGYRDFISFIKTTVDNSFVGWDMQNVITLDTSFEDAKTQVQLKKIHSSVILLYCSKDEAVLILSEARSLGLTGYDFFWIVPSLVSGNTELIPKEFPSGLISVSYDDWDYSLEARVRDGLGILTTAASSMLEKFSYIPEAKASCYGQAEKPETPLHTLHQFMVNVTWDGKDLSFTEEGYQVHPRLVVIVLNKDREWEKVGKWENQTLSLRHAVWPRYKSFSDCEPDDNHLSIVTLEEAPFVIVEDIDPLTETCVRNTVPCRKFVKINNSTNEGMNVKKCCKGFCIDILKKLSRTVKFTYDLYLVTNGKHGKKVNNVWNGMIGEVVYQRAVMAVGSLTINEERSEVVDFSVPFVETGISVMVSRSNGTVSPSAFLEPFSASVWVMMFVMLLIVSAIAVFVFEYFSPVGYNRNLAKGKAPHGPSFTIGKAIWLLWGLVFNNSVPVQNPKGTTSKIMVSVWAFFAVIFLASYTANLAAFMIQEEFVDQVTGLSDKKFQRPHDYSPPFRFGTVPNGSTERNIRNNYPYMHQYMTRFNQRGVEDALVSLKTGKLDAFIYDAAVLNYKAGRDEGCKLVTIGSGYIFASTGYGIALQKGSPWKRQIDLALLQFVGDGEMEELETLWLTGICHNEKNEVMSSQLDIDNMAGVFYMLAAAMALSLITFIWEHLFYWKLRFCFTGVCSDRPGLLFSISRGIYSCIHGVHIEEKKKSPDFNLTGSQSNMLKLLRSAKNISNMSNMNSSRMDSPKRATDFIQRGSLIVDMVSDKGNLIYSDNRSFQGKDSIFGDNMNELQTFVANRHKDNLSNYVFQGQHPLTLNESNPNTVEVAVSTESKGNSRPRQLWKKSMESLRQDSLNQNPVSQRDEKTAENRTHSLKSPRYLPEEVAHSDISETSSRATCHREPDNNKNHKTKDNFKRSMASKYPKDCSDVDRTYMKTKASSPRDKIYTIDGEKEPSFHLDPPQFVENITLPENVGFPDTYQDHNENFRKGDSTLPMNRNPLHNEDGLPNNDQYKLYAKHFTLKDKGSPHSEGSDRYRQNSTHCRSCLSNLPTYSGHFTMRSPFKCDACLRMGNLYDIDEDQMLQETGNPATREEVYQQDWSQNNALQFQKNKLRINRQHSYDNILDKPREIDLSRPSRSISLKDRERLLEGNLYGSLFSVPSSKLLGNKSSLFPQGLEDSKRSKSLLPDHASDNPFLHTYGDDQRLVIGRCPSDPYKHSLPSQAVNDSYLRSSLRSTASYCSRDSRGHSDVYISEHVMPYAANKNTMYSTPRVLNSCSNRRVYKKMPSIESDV
T2 sequence (Q00960 27-1482, other chains not shown): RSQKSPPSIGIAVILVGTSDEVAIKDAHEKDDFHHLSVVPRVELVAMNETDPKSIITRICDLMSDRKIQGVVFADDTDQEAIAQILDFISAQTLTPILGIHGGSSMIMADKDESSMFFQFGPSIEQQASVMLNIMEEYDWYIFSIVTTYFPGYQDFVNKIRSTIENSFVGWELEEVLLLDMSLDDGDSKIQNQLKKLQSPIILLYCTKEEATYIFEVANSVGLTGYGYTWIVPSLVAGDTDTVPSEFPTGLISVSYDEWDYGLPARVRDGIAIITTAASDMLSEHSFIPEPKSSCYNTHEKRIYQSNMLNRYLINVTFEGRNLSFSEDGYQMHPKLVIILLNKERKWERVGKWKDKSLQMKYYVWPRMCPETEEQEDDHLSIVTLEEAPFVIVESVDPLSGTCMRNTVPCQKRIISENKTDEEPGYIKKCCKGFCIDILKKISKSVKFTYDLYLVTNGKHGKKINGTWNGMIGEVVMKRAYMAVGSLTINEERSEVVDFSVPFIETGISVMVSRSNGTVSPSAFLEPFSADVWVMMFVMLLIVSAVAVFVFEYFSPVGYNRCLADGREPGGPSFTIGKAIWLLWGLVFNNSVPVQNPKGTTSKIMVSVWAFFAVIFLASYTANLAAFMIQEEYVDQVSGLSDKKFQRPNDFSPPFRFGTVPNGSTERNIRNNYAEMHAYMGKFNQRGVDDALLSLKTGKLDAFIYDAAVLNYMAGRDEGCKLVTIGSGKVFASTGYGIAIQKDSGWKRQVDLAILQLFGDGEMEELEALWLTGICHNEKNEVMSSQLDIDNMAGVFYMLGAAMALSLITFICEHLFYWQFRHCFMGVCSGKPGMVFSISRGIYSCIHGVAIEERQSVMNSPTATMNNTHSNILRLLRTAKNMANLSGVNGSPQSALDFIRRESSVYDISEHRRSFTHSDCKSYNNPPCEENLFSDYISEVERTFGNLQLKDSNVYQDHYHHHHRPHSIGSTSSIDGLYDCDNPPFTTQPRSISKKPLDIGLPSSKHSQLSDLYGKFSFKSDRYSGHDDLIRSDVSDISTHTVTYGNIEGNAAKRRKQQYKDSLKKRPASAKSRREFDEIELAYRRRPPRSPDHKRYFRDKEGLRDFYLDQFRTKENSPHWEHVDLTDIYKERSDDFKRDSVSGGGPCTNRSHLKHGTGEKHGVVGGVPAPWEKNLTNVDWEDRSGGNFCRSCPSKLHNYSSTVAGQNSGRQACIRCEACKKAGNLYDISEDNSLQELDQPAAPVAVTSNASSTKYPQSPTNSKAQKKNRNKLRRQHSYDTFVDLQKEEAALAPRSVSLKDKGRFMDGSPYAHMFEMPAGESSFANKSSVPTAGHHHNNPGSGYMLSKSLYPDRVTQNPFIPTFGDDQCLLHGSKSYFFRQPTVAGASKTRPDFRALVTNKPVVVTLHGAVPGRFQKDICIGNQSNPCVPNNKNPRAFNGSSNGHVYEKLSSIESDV
Protocol: Spinal cord slice preparation and electrophysiological recordings: The lumbar spinal cord was rapidly removed through laminectomy from the animals anesthetized with isoflurane. […] The spinal cord tissue was then placed in a shallow groove formed in an agar block and glued onto the stage of a vibratome (Leica, Germany).
All signals were recorded using an amplifier (MultiClamp700B; Axon Instruments Inc., Union City, Calif.), filtered at 1-2 kHz, and digitized at 10 kHz.

| Substance | amplitude of puff NMDA-elicited currents ([1]; Cacna2d1−/− mice) | frequency of mEPSCs ([1]; Cacna2d1−/− mice) | NMDAR-mediated frequency of mEPSCs ([1]; wild-type mice) | amplitude of puff NMDA-elicited currents ([1]; wild-type mice) | OGD-induced increase in the puff NMDAR currents ([2]; 5 min OGD, peptides 1 μM) | basal puff NMDAR currents of hippocampal CA1 pyramidal neurons ([2]; before OGD, peptide 1 μM) | frequency of mEPSCs in dorsal horn neurons ([3]; peptide 1 μM for 60 min) | amplitude of monosynaptic evoked EPSCs ([3]; peptides 1 μM for 60 min) |
| --- | --- | --- | --- | --- | --- | --- | --- | --- |
| Ang II: angiotensin II, obtained from Sigma (DRVYIHPF; Angiotensin-2; UniProt P01019 25-32, looked up) | had no effect | had no effect | markedly increased | markedly increased | – | – | – | – |
| YGRKKRRQRRRVSGLNPSLWSIFGLQFILLWLVSGSRHYLW (a2d1 peptide) [α2δ-1Tat peptide, 30-amino-acid peptide mimicking the C-terminal domain of α2δ-1 fused to the cell-penetrating peptide Tat] | – | – | – | – | failed to increase | had no effect | significantly reduced | normalized |
